Measured values reported in patent publication US9409952B2, “Peptide-compound cyclization method” (Chugai Seiyaku Kabushiki Kaisha, priority 2011, dated 2016).
Like-named read-outs stand apart in the source and are kept apart here. Starred links: 1 amine or outer side, 2 acyl side, 3 side chain; linkers in the order of their positions; H or OH if unused. Positions of bridges follow the written chain, without caps; N, C: chain ends. Non-standard residues stand in square brackets, D forms with d. Residues, ends and D or L forms follow the SMILES beside them. *: point of attachment. Phe(3-(CH2)4CO) = O=C([C@H](Cc1cccc(CCCCC(=O)[*:3])c1)N[*:1])[*:2]; Cys(O)(CH2CO) = O=C([C@H](C[S+]([O-])CC(=O)[*:3])N[*:1])[*:2]; NMePhe(3-Cl) = CN[C@@H](Cc1cccc(Cl)c1)C(=O)O; NMeF = CN[C@@H](Cc1ccccc1)C(=O)O; NMeI = CC[C@H](C)[C@H](NC)C(=O)O; NMeL = CN[C@@H](CC(C)C)C(=O)O; NMeV = CN[C@H](C(=O)O)C(C)C; NMeA = CN[C@@H](C)C(=O)O; Piperidide = C1CCN(*)CC1; β3hA = C[C@H](N)CC(=O)O; NPrGly = CCCNCC(=O)O; Sar = CNCC(=O)O; tBu = CC(C)(C)*

Key:
[1] = Mouse PK test of peptides (intravenous and oral administration); details: male, C57BL/6J, in vivo, 20 mg/kg
[2] = Metabolic stability in human hepatic microsome; format: in vitro ADME; details: microsomes
[3] = PAMPA (parallel artificial membrane permeability assay); format: in vitro ADME; details: PAMPA
In short: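 Artificial membrane was 10% (w/v) egg lecithin plus 0.5% (w/v) cholesterol in dodecane on a PVDF filter. A 10 mM DMSO stock was added at 0.5% (v/v) to donor buffer (50 mM MOPSO, pH 6.5, 5.0% glycocholic acid). After 18 h at 37 °C, LC/MS or LC/UV gave donor and acceptor levels for Pe.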

[4] = in vivo; details: male, C57BL/6J, mouse, 20 mg/kg
[5] = Metabolic stability in mouse hepatic microsome; format: in vitro ADME; details: male, mouse, liver microsomes, pH 7.4; Table 9, thioether versus sulfoxide; read-out: Mouse Hepatic Microsome CLh, int
Method: The obtained compound was metabolically reacted at a concentration of 2 uM with mouse serum (male/female mixed, Valley Biomedical, USA) (adjusted to pH 7.4 with 33.5 mM HEPES buffer) for two hours. Deproteinization treatment with acetonitrile was provided over time, the amount of the remaining unchanged compound was analyzed using LC/MS, and the metabolic half-life (t1/2) was calculated. A microsome solution prepared at 0.5 mg protein/mL from mouse hepatic microsome and small intestinal microsome (male, XENOTECH, USA) using 100 mM phosphate buffer (pH 7.4) was metabolically reacted with the compound at a concentration of 1 uM for 30 minutes in the presence or absence of NADPH. Deproteinization treatment with acetonitrile was provided over time, the amount of the remaining unchanged compound was analyzed using LC/MS, and the hepatic-intrinsic clearance (CLh, int) and the small intestinal-intrinsic clearance (CLg, int) were calculated (Table 7). Such peptides were sufficiently slowly metabolized by hydrolysis with peptidases or the like in mouse sera and microsomes, contrary to peptides composed of natural amino acids having low lipophilicity.
Metabolic stability tests were carried out in the same manner as shown in 2-1.

[6] = pH 7.4, human hepatic microsome, NADPH(+), read-out: CL NADPH(+)
[7] = membrane permeation rate (Pe), 50 mM MOPSO buffer pH 6.5 with 5.0% glycocholic acid, 37° C., 18 hours, read-out: iPAMPA Pe

SMILES | AUC ([1]; iv) [ng·h/mL] | C0 ([1]; iv) [ng/mL] | Vd ([1]; iv) [L/kg] | clearance ([1]; iv) [mL/min/kg] | half-life ([1]; iv) [h] | AUC ([1]; po) [ng·h/mL] | CL/F ([1]; po) [mL/min/kg] | Cmax ([1]; po) [ng/mL] | Tmax ([1]; po) [h] | bioavailability ([1]; po) [%] | half-life ([1]; po) [h] | microsomal CLint at 1 uM [2, 6] [µL/min/mg] | Papp at 18 hours, 50 µM [3, 7] [×10⁻⁶ cm/s] | also measured
CC[C@H](C)[C@H]1C(=O)N[C@H](C(=O)N2CCCCC2)CC(=O)N[C@H](C(C)C)C(=O)N(C)[C@@H](Cc2ccccc2)C(=O)N(C)[C@@H](CC(C)C)C(=O)N[C@@H]([C@@H](C)O)C(=O)N(C)CC(=O)N(C)[C@@H](CC(C)C)C(=O)N[C@@H](COC(C)(C)C)C(=O)N1C [DP-265] ([dV][NMeF][NMeL]T[Sar][NMeL]S(tBu)[NMeI]D-Piperidide; lactam N-9) | 35300 | 58300 | 0.713 | 9.48 | 1.82 | 5120 | 65.1 | 2850 | 0.67 | 14.5 | 1.96 | 58 | 42 | 
CC[C@H](C)[C@H]1C(=O)N[C@@H]([C@@H](C)O)C(=O)N(C)CC(=O)N(C)[C@@H](CC(C)C)C(=O)N[C@H](C(=O)N2CCCCC2)CC(=O)N(C)[C@@H](C)C(=O)N[C@@H](CC(C)C)C(=O)N(C)[C@@H](CC(C)C)C(=O)N(C)[C@@H](Cc2ccccc2)C(=O)N[C@@H](C)C(=O)N(C)[C@@H](Cc2ccccc2)C(=O)N1C [DP-101] ([NMeA]L[NMeL][NMeF]A[NMeF][NMeI]T[Sar][NMeL]D-Piperidide; lactam N-11) |  |  |  |  |  |  |  |  |  |  |  |  |  | microsomal CLint at 1 uM ([2]; human, pH 7.4, CL NADPH(+)): 101 µL/min/mg; AUC ([4]; iv): 83300 ng·h/mL; C0 ([4]; iv): 112000 ng/mL; Vd ([4]; iv): 0.455 L/kg; clearance ([4]; iv): 4.01 mL/min/kg; half-life ([4]; iv): 1.91 h; AUC ([4]; po): 12700 ng·h/mL; CL/F ([4]; po): 26.2 mL/min/kg; Cmax ([4]; po): 2320 ng/mL; Tmax ([4]; po): 1.83 h; bioavailability ([4]; po): 15.2%; half-life ([4]; po): 2.27 h; Papp at 18 hours, 50 µM ([3]; pH 6.5): 56 ×10⁻⁶ cm/s
CC[C@H](C)[C@H]1C(=O)N[C@H](C(=O)N2CCCCC2)C[S+]([O-])CC(=O)N(C)[C@@H](C)C(=O)N[C@@H](Cc2ccccc2)C(=O)N(C)[C@@H](CC(C)C)C(=O)N[C@@H]([C@@H](C)O)C(=O)N(C)CC(=O)N(C)[C@@H](CC(C)C)C(=O)N[C@@H](COC(C)(C)C)C(=O)N1C (stereo partly drawn) [Compound P-117, (5S,8S,11S,14S,20S,23S,26S,29R)-8-benzyl-23-(tert-butoxymethyl)-26-((S)-sec-butyl)-14-((R)-1-hydroxyethyl)-11,20-diisobutyl-4,5,10,16,19,25-hexamethyl-29-(piperidine-1-carbonyl)-1-thia-4,7,10,13,16,19,22,25,28-nonaazacyclotriacontane-3,6,9,12,15,18,21,24,27-nonone 1-oxide] ([NMeA]F[NMeL]T[Sar][NMeL]S(tBu)[NMeI][Cys(O)(CH2CO)]-Piperidide; lactam N-9) |  |  |  |  |  |  |  |  |  |  |  |  |  | microsomal CLint at 1 uM [5]: 36 µL/min/mg
CCCN1CC(=O)N(C)[C@@H](CC(C)C)C(=O)N[C@@H](COC(C)(C)C)C(=O)N(C)[C@@H](CC(C)C)C(=O)N[C@H](C(=O)N2CCCCC2)CC(=O)N[C@H](C)C(=O)N(C)[C@@H](C)C(=O)N(C)[C@@H](Cc2ccccc2)C(=O)N(C)[C@@H](CC(C)C)C(=O)N[C@@H]([C@@H](C)O)C1=O [DP-547] ([dA][NMeA][NMeF][NMeL]T[NPrGly][NMeL]S(tBu)[NMeL]D-Piperidide; lactam N-10) | 37200 | 44500 | 0.541 | 8.98 | 1.1 | 4510 | 74.6 | 1470 | 1 | 12.1 | 1.84 | 33 | 34 | 
CC(C)C[C@@H]1NC(=O)[C@H](Cc2ccccc2)N(C)C(=O)[C@H](Cc2ccccc2)N(C)C(=O)[C@H](CC(C)C)NC(=O)[C@H](C)N(C)C(=O)[C@H]([C@@H](C)O)NC(=O)[C@H](C)N(C)C(=O)C[C@@H](C(=O)N2CCCCC2)NC(=O)[C@H](CC(C)C)N(C)C1=O [DP-125] ([NMeA]T[NMeA]L[NMeF][NMeF]L[NMeL]D-Piperidide; lactam N-9) | 35400 | 46400 | 0.545 | 9.49 | 1.44 | 12100 | 27.5 | 3090 | 3.5 | 34.6 |  | 189 | 55 | 
CCCN1CC(=O)N(C)[C@@H](CC(C)C)C(=O)N[C@@H]([C@@H](C)O)C(=O)N(C)[C@@H](C)C(=O)N(C)[C@@H](CC(C)C)C(=O)N(C)[C@@H]([C@@H](C)CC)C(=O)N[C@@H](COC(C)(C)C)C(=O)N[C@H](C(=O)N2CCCCC2)CC(=O)N(C)[C@@H](C)C(=O)N(C)[C@@H](Cc2ccccc2)C1=O [DP-540] ([NMeA][NMeF][NPrGly][NMeL]T[NMeA][NMeL][NMeI]S(tBu)D-Piperidide; lactam N-10) | 41400 | 48100 | 0.803 | 8.16 | 1.63 | 9800 | 35.8 | 1870 | 1.83 | 23.7 | 3.11 | 67 | 36 | 
CC[C@H](C)[C@H]1C(=O)N[C@H](C(=O)N2CCCCC2)C[S+]([O-])CC(=O)N(C)[C@@H](Cc2ccccc2)C(=O)N(C)[C@@H](C)C(=O)N(C)[C@@H](Cc2ccccc2)C(=O)N(C)[C@@H](CC(C)C)C(=O)N[C@@H]([C@@H](C)O)C(=O)N(C)CC(=O)N(C)[C@@H](CC(C)C)C(=O)N[C@@H](COC(C)(C)C)C(=O)N1C (stereo partly drawn) [Compound P-116, (5S,8S,11S,14S,17S,23S,26S,29S,32R)-5,11-dibenzyl-26-(tert-butoxymethyl)-29-((S)-sec-butyl)-17-((R)-1-hydroxyethyl)-14,23-diisobutyl-4,7,8,10,13,19,22,28-octamethyl-32-(piperidine-1-carbonyl)-1-thia-4,7,10,13,16,19,22,25,28,31-decaazacyclotritriacontane-3,6,9,12,15,18,21,24,27,30-decone 1-oxide] ([NMeF][NMeA][NMeF][NMeL]T[Sar][NMeL]S(tBu)[NMeI][Cys(O)(CH2CO)]-Piperidide; lactam N-10) |  |  |  |  |  |  |  |  |  |  |  |  |  | microsomal CLint at 1 uM [5]: 56.5 µL/min/mg
CC[C@H](C)[C@H](NC(=O)[C@@H]1CCCN1C(=O)[C@@H]1CC(=O)N[C@@H](C)C(=O)N[C@@H](CC(C)C)C(=O)N(C)[C@@H]([C@@H](C)CC)C(=O)N[C@@H](C(C)C)C(=O)N(C)[C@@H](Cc2ccccc2)C(=O)N[C@@H](CC(C)C)C(=O)N(C)[C@@H](Cc2ccccc2)C(=O)N1)C(=O)N1CCCCC1 [DP-965] (AL[NMeI]V[NMeF]L[NMeF]DPI-Piperidide; lactam N-8) | 193000 | 171000 | 0.403 | 1.73 | 2.99 | 13700 | 28.9 | 1920 | 2.67 | 7.12 | 2.99 | 56 | 16 | 
CC[C@H](C)[C@H]1C(=O)N[C@@H](COC(C)(C)C)C(=O)N[C@@H](C)CC(=O)N(C)[C@@H](C)C(=O)N(C)[C@@H](Cc2cccc(Cl)c2)C(=O)N(C)CC(=O)N(C)[C@@H](CC(C)C)C(=O)N[C@@H]([C@@H](C)O)C(=O)N(C)[C@@H](C)C(=O)N(C)[C@@H](CC(C)C)C(=O)N1C [DP-803] (cyclo([NMeA][NMeL][NMeI]S(tBu)[β3hA][NMeA][NMePhe(3-Cl)][Sar][NMeL]T)) |  |  |  |  |  |  |  |  |  |  |  | 85 | 28 | 
CC(C)C[C@H]1C(=O)N(C)[C@@H](Cc2ccccc2)C(=O)N[C@@H](C)C(=O)N2CCC[C@H]2C(=O)N(C)[C@@H](CC(C)C)C(=O)N(C)[C@@H](Cc2ccccc2)C(=O)N(C)[C@@H](C(C)C)C(=O)N[C@H](C(=O)N2CCCCC2)CC(=O)N[C@H](C(C)C)C(=O)N[C@@H]([C@@H](C)O)C(=O)N(C)CC(=O)N1C [DP-66] ([dV]T[Sar][NMeL][NMeF]AP[NMeL][NMeF][NMeV]D-Piperidide; lactam N-11) |  |  |  |  |  |  |  |  |  |  |  |  |  | microsomal CLint at 1 uM ([2]; human, pH 7.4, CL NADPH(+)): 69 µL/min/mg; Papp at 18 hours, 50 µM ([3]; pH 6.5): 19 ×10⁻⁶ cm/s
CC[C@H](C)[C@@H]1NC(=O)[C@H](Cc2ccccc2)N(C)C(=O)[C@H](Cc2ccccc2)NC(=O)[C@H](CC(C)C)N(C)C(=O)[C@H](C(C)C)NC(=O)[C@H](CC(C)C)NC(=O)CCCCc2cccc(c2)C[C@@H](C(=O)N2CCCCC2)NC(=O)[C@H]([C@@H](C)O)NC(=O)[C@H](CC(C)C)NC(=O)[C@H](C)N(C)C1=O [DP-894] (LV[NMeL]F[NMeF]I[NMeA]LT[Phe(3-(CH2)4CO)]-Piperidide; lactam N-10) |  |  |  |  |  |  |  |  |  |  |  | 71 | 0.46 | 
